Experimental data from PMC10878790 (The Journal of Biological Chemistry, 2024).
Entries after “also recorded” stand apart in the source; their conditions may differ. Square brackets hold non-standard residues; d marks the D form. Ends that are not written are not given here. Peptide text beside a SMILES is read from it.

Key:
MDA-MB-231 cells [1] = experiment: Wound healing assay; type: cell-based; conditions: equimolar peptide concentrations; compared to untreated cells
Description: (§1) The wound healing assay was performed using two breast cancer cell lines, MDA-MB-231 and MCF-7, and two prostate cancer cell lines, PC-3 and DU-145, to evaluate the antimigratory capacity of the peptides. […] The cells were grown to approximately 80% confluency in 12-well tissue culture plates, and a cell-free area was created by scraping the monolayer. The peptides were added, and the cells were incubated at 37 °C with 5% CO2 for 24 h. Wound closure was assessed by imaging the wounds at 0 and 24 h, and the wound areas were quantified using ImageJ software (https://imagej.net/ij/). In the transwell invasion assay, MDA-MB-231 cells were serum starved for 4 h followed by a pretreatment with increasing concentrations of each peptide in a 0.1% serum-containing DMEM for 24 h. The cells were then trypsinized, resuspended in same media for the second treatment of peptides, and counted. Next, 40,000 cells were resuspended in 0.1% serum containing DMEM and added to the upper chamber of Transwell plates (Corning Life Sciences) with a polyethylene terephthalate membrane (6.4 mm diameter, 8 μm pore size). The bottom chambers were filled with DMEM containing 10% FBS as a chemoattractant. The transwell plates were incubated at 37 °C with 5% CO2 for 24 h to allow the invasion of cells through the membrane. The invaded cells on the lower side of the membrane were fixed with 4% paraformaldehyde for 15 min, followed by a PBS wash. The membrane inserts were further fixed with ice-cold methanol for 20 min and stained with 0.25% (w/v) crystal violet. After incubation, the noninvasive cells on the upper surface of the membrane were gently removed using a cotton swab. Random fields were chosen for imaging, and the number of invaded cells was counted using ImageJ software. The results were expressed as the average number of invaded cells compared with the control.

MDA-MB-231 cells [2] = experiment: Transwell invasion assay; type: cell-based; conditions: 24 h
Description: as §1

PC-3 = type: cell-based; conditions: MTT, 48 hours
Description: (§2) MDA-MB-231, MCF-7, DU-145, PC-3, and NIH-3T3 cell lines were procured from the American Type Culture Collection and used within ten consecutive passages to ensure consistent cell behavior. MDA-MB-231, MCF-7, and NIH-3T3 cells were maintained at 37 °C and 5% CO2 in Dulbecco's modified Eagle's medium (DMEM) high glucose (Hyclone) supplemented with 10% fetal bovine serum (FBS) and 1% Antibiotic-Antimycotic (Gibco), while DU-145 and PC-3 cells were grown in RPMI-1640 supplemented with the same concentration of FBS and Antibiotic-Antimycotic. The media was replenished every 2 days. Cells were checked for mycoplasma at regular intervals using a PCR-based Mycoplasma detection kit plasmocin prophylactic (InvivoGen). In all experiments, cells were maintained in serum-free DMEM for 6 h before peptide treatment. Peptide treatment was done in the media containing 0.1% fetal bovine serum for 48 h in all the experiments unless otherwise stated.
(§3) Cell viability was determined by 3-[4,5-dimethylthiazol-2-yl]-2,5 diphenyl tetrazolium bromide (MTT) assay as described earlier ([52]). ProTox-II "Prediction of Toxicity of Chemicals" web server was used for toxicology assessment ([19]). See the Supporting Information for full experimental details.
(§4) Full Experimental Method for Cell Viability Assay:
(§5) Cell viability of murine NIH- 3T3 cells, as well as MDA- MB -231 , MC F-7, PC- 3, and DU-145 cells, wa s assessed through the MT T assay as described previously(1). Approximately
(§6) 5000 cells per well were seeded in a 96-well plate and allowed to incubate overnight for attachment. Following attachment, the growth medium was replaced wit h a fresh medium
(§7) containing serial dilutions of peptides. The cells we re then incubated for 48 hours in a 5% CO2 incubator . After incubation, 10 μl of a 5 mg/mL MT T solution was introduced to each
(§8) well and left to incubate for an additional 2 hours . Subsequently, the entire medium, along wit h the MT T solution, was aspirated, and the remaining formazan crystals were dissolved
(§9) in 200 μl of DMSO. The absorbance was measured at 595 nm using a Biotek Synergy 2 Plate Reader. […]
(§10) ProTox-II "Prediction of Toxicity of Chemicals" we b server was used for toxicology assessment. […]

MDA-MB-231 = type: cell-based; conditions: MTT, 48 hours
Description: as §2, §3, §4, §5, §6, §7, §8, §9, §10

DU-145 = type: cell-based; conditions: MTT, 48 hours
Description: as §2, §3, §4, §5, §6, §7, §8, §9, §10

MCF-7 = type: cell-based; conditions: MTT, 48 hours
Description: as §2, §3, §4, §5, §6, §7, §8, §9, §10

[3] = Pharmacokinetic studies in CD1 mice; conditions: in vivo, iv, 5 mg/kg
NIH-3T3 = type: cell-based, murine; conditions: MTT, 48 hours; normal cells
Description: as §2, §3, §4, §5, §6, §7, §8, §9, §10

[4] = Mouse liver microsome stability; conditions: for remaining at 2 h, 2 μM / half-life at 2 μM: male; for remaining at 2 h, 2 μM: Institute of Cancer Research/CD-1, mouse; for half-life at 2 μM: ICR/CD-1, mouse
Description: An NADPH-regenerating system (1.7 mg/ml NADP, 7.8 mg/ml glucose-6-phosphate, 6 U/ml glucose-6-phosphate dehydrogenase in 2% w/v NaHCO3/10 mm MgCl2) was added for analysis of Phase I metabolism after heating both the regenerating solution and the sample tubes to 37 °C for 5 min in a 37 °C shaking water bath. The incubation was continued and at varying time points after addition of phase I cofactors, the reaction was stopped by the addition of 0.5 ml of acetonitrile containing IS and formic acid such that the final concentration of IS was 100 ng/ml and acid was 0.1%. Time 0 samples were stopped with the acetonitrile solution while still on ice prior to addition of the NADPH regenerating system and compound, which were subsequently added. The samples were incubated for 10 min at room temperature and then spun at 16,100g for 5 min in a microcentrifuge at 4 °C. The supernatant was analyzed by LC-MS/MS. The method described by McNaney et al. was used with modification for determination of metabolic stability half-life by substrate depletion ([59]). A “% remaining” value was used to assess the metabolic stability of a compound over time. The LC-MS/MS peak area of the incubated sample at each time point was divided by the LC-MS/MS peak area of the time 0 (T0) sample and multiplied by 100. The natural Log (LN) of the % remaining of compound was then plotted versus time (in min) and a linear regression curve was plotted going through y-intercept at LN (100).

MDA-MB-231 cells [5] = experiment: Western blot of MIEN1 signaling pathway proteins; type: cell-based; conditions: mean values of immunoblot densitometry
Description: Cells were exposed to the peptides and subjected to Western blot analysis with the indicated antibodies. […] Cytoplasmic and nuclear cell lysate extracts of EGF only and EGF plus peptide-treated cells were probed for p65 and p50. Lamin A/C and β-actin were used as nuclear and cytoplasmic loading control respectively. Densitometry was determined with immunoblots (N = 3) and normalized to total protein or β-actin for whole cell lysates and cytoplasmic fraction of peptide-treated MDA-MB-231 cells. In case of nuclear lysates, the immunoblots were normalized with Lamin A/C. Bar graphs are densitometric data (means ± SD). […] EGF concentration: (10 ng/ml); Peptide concentration: 90 μM. EGF, epidermal growth factor; MIEN1, migration and invasion enhancer 1; NF-κB, nuclear factor kappa B.
Western blot analysis was performed according to standard protocols to assess the effects of MIEN1-derived peptides and their analogs on MDA-MB-231 cells and DU-145 cells. Cell lysates were prepared using radioimmunoprecipitation assay buffer and quantified for protein content by bicinchoninic acid method. […] Protein blocking with 5% bovine serum albumin was followed by incubation with primary antibodies specific to various proteins at 4 °C for 8 to 10 h. The membrane was then washed three times in Tris Buffered Saline with Tween 20 and incubated with the appropriate secondary antibody. Protein bands were visualized using the Alpha Innotech chemiluminescent detection system. In case of MDA-MB-231 cells, cytoplasmic and nuclear extracts were isolated to investigate the effects of peptides and/or EGF stimulation. Prior to exposure to the cells, the test peptides (90 μM) were incubated with EGF (10 ng/ml) in media at 4 °C for 15 min. The untreated MDA-MB-231 cells received EGF alone at the same concentration. The isolation of cytoplasmic and nuclear fractions was performed using the Subcellular Protein Fractionation Kit for Cultured Cells from Thermo Fisher Scientific (cat #78840) following the manufacturer's guidelines. For Western blot experiments, 20 μg of purified cytoplasmic and nuclear fraction was used.
Densitometry analysis of Western blot data was conducted using the AlphaView-FluorChem HD2 software of the Alpha Innotech chemiluminescent detection system (https://www.cambridgescientific.com/product/alpha-innotech-fluorchem-hd2-gel-imaging-system). To quantify band intensities, a uniform rectangle was drawn around each band, and background subtraction was applied to determine the total pixel density for each lane. Further calculations, including the determination of the ratio of phosphorylated proteins to total proteins or other loading controls, were carried out using Microsoft Excel. […]

[6] = In vivo toxicity of peptides alone; parameters: species or system athymic nude mice; conditions: for body weight / signs of distress / survival: 90 mg/Kg ip on day 5, day 10 and day 15; for survival: after 30 days; for signs of toxicity: three ip doses of 90 mg/Kg, 90 mg/kg
Description: MDA-MB-231 cells were implanted orthotopically into the second thoracic mammary fat pad of nude mice (n = 5). […] The control mice received vehicle only. B, at the end of the experiments, representative tumors were removed and photographed. […] The tumor sizes were measured by a digital caliper and shown as mean volume ± SDs every alternate day for 30 days. […] The statistical analysis was performed on GraphPad Prism 9.4.0. […] E–H, Western blots of cell lysates prepared from the tumors of untreated tumor (Vehicle) versus LA3IK and RP-7 for apoptosis-associated proteins. Number of tumors taken for study = 4 per group. Densitometry was determined and normalized to β-actin. Bar graphs are densitometric data (means ± SD). Data analyzed by one-way ANOVA. ∗p < 0.05,∗∗p <0.01 and ∗∗∗p < 0.001. Full-length representative blots are in Figure S8(2). […] The mice were monitored for changes in body weights as a surrogate marker for toxicity.
Cleaved caspase-3 plays a pivotal role in transmitting apoptotic signals through its enzymatic actions on downstream targets, including PARP and other substrates. PARP, which is an ADP-ribosylating enzyme, is essential for initiating various types of DNA repair processes ([29]). However, when it is cleaved by activated caspase-3, PARP loses its functionality, leading to the suppression of DNA repair mechanisms. This, in turn, may promote cell death through both caspase-dependent and caspase-independent pathways of apoptosis ([30]).

| Molecule | inhibition of migration (MDA-MB-231 cells [1]) | number of invaded MDA-MB-231 cells / inhibition of invasion (MDA-MB-231 cells [2]) | IC50 (PC-3) [µM] | IC50 (MDA-MB-231) [µM] | IC50 (DU-145) [µM] | IC50 (MCF-7) [µM] | IC50 (NIH-3T3) [µM] | remaining at 2 h, 2 μM ([4]; microsomes, pH 7.5) [%] | body weight / signs of distress [6] | survival [6] | signs of toxicity [6] | also measured |
| --- | --- | --- | --- | --- | --- | --- | --- | --- | --- | --- | --- | --- |
| CC[C@H](C)[C@H](NC(=O)[C@@H](NC(=O)[C@H](CS)NC(=O)[C@@H]1CCCN1C(=O)[C@@H]1CCCN1C(=O)[C@H](CCCNC(=N)N)NC(=O)[C@H](CS)NC(C)=O)C(C)C)C(=O)N[C@@H](CC(C)C)C(N)=O [CR-8] (Ac-CRPPCVIL-NH2) | limited inhibition | limited inhibition | – | – | – | – | – | – | – | – | – | – |
| CC[C@@H](C)[C@@H](NC(=O)[C@H](NC(=O)[C@@H](CS)NC(=O)[C@H]1CCCN1C(=O)[C@H]1CCCN1C(=O)[C@@H](CCCNC(=N)N)NC(C)=O)C(C)C)C(=O)N[C@H](CC(C)C)C(N)=O [D-RP-7] (Ac-[dR][dP][dP][dC][dV][dI][dL]-NH2) | – | – | 101 ± 5.73 | 95 ± 7.71 | 122 ± 6.56 | 90 ± 10.3 | 210 ± 8.41 | 64.4 | – | – | – | MRT ([3]; female, CD1, mouse): 5.7 h; Tmax ([3]; female, CD1, mouse): 4.8 min; Vd ([3]; female, CD1, mouse): 1700 L/kg; Cmax ([3]; mouse): 48 ng/mL; Vd ([3]; mouse): 1310 L/kg; clearance ([3]; mouse): 1420 mL/min/kg; half-life ([3]; mouse): 13.8 h; half-life ([4]; mouse, microsomes, Mouse Liver Microsome T ½ (h), 2 μM peptide, 0.5 mg/ml microsome protein, NADPH-regenerating system): > 2 h; greater inhibition of FAK phosphorylation than L-peptide counterpart (MDA-MB-231 cells [5]): 24.2%; greater inhibition of SRC phosphorylation than L-peptide counterpart (MDA-MB-231 cells [5]): 29.5% |
| CC[C@H](C)[C@H](NC(=O)[C@H](C)NC(=O)[C@H](CC(C)C)NC(C)=O)C(=O)N[C@@H](C)C(=O)N[C@H](C(=O)N[C@@H](CCCCN)C(N)=O)C(C)C [LA3IK, LAIAVK] | – | – | – | – | – | – | – | – | No body weight loss or other signs of distress | All mice (N = 3) were alive | did not display any signs of toxicity; also recorded: no significant toxicity | half-life at 2 μM ([4]; liver microsomes, pH 7.5): > 2 h; remaining at 2 h, 2 μM ([4]; liver microsomes, pH 7.5): 83.7% |
| Ac-RPPCVIL-NH2 [RP-7] | – | – | 113 ± 8.02 | 139 ± 8.41 | 121 ± 7.08 | 110 ± 4.23 | 221 ± 6.23 | 17.7 | No body weight loss or other signs of distress | All mice (N = 3) were alive | did not display any signs of toxicity; also recorded: no significant toxicity | half-life at 2 μM ([4]; microsomes, pH 7.5, Mouse Liver Microsome T1/2, 2 μM peptide): 0.872 h; half-life at 2 μM ([4]; microsomes, pH 7.5, Mouse Liver Microsome T ½ (h), 2 μM peptide, 0.5 mg/ml microsome protein, NADPH-regenerating system): 0.87 h |
| Ac-SRPPCVIL-NH2 [SR-8] | limited inhibition | limited inhibition | > 600 | 528.3 ± 4.57 | > 600 | 141 ± 12.9 | > 600 | – | – | – | – | – |
| LASAVK [LA-6, LASAVK] | limited inhibition | limited inhibition | > 600 | > 600 | > 600 | > 600 | > 600 | – | – | – | – | – |
